Experimental data from article PMC11858294, “Design, Synthesis and Biological Activity Study of γ-Aminobutyric Acid (GABA) Derivatives Containing Bridged Bicyclic Skeletons as BCAT1 Inhibitors” (Molecules, 2025).

Legend:
NCI-H1975 cells = experiment: Cell proliferation assay (SRB), NCI-H1975 cells; format: cell-based; settings: Homo sapiens, proliferation inhibition, 120 h, mean ± SD (n = 3)
Description: (§1) Subsequently, we evaluated the in vitro anti-proliferative activity of compounds 1, 2, 4 and 7 on the proliferation of both 67R and NCI-H1975 cells, using gabapentin as positive controls (Figure 3 and Table 2). These four compounds represented the potent BCAT1 inhibitors in the above enzymatic assay.
(§2) Cell culture and chemical reagents: Human NSCLC NCI-H1975 cells were purchased from American Type Culture Collection (ATCC, Manassas, VA, USA) and cultured in RPMI 1640 medium with 10% FBS in a cell incubator (37 °C, 5% CO2). ASK120067-resistant cells (67R) were constructed, cultured, and authenticated as described previously. Gabapentin (#T0702) was purchased from TargetMol (Boston, MA, USA).
(§3) A sulforodamine B (SRB) colorimetric assay was employed to detect the inhibitory effect of compounds on cell proliferation. Cells in the logarithmic growth phase were seeded into 96-well plates and cultured overnight. After incubation with the indicated compounds for 120 h, the culture medium was discarded. Then, 100 μL of 10% pre-cooled trichloroacetic acid (TCA) was added to each well to fix the cells at 4 °C for 1 h. The wells were then washed five times with distilled water. After drying, 100 μL of SRB dye (4 mg/mL SRB dissolved in 1% glacial acetic acid) was added to each well, and the cells were stained for 15 min at room temperature. After washing with 1% glacial acetic acid for five times, the plate was dried again. To dissolve the dye, 150 μL of 10 mM Tris solution was added to each well. The optical density (OD) was measured at 560 nm using a multi-well VersaMax spectrophotometer (Molecular Devices, Sunnyvale, CA, USA). The relative inhibition rate of the compounds on cell proliferation was calculated using the following formula: Inhibition rate (%) = [1 − (A560treated/A560control)] × 100%. The IC50 values were determined from the dose–response curves using the logit method.

67R cells = experiment: Cell proliferation assay (SRB), ASK120067-resistant 67R cells; format: cell-based, Human; settings: 120 h, proliferation inhibition, mean ± SD (n = 3), cells with high BCAT1 expression
Description: as §1, §2, §3

BCAT1 enzyme = target: T1, BCAT1 enzyme (Homo sapiens, UniProt P54687); experiment: BCAT1 enzyme inhibition assay (LeuDH-coupled, NADH fluorescence); format: biochemical
T1 construct: purchased Sino Biological ME17NO0265
T1 sequence (P54687 1-386): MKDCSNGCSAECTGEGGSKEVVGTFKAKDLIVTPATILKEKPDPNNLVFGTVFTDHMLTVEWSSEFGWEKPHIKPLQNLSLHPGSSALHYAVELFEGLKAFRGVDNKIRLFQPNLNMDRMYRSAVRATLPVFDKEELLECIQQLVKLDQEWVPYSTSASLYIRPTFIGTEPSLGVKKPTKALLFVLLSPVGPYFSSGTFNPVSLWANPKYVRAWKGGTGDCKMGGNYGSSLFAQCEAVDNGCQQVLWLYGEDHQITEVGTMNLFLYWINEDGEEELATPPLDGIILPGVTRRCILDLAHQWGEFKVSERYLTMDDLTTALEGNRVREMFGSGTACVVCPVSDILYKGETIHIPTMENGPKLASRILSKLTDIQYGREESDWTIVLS
Description: The inhibitory activity of the synthesized compounds against BCAT1 enzyme was screened by a known method, where leucine dehydrogenase (LeuDH) was utilized to catalyze the nicotinamide adenine dinucleotide (NADH)-dependent reduction of the BCAA α-ketoisocaproate (α-KIC) to leucine and NADH consumption was measured through fluorescence and luminescence readouts to assess BCAT1 activity.
The compounds to be tested or PBS was added to a 384-well plate, followed by the addition of assay buffer (50 mM ammonium sulfate, 1 mM EDTA, 2 mM DTT, 0.01% BSA, 0.5 μM PLP, 50 mM HEPES buffer (pH 7.4)), 0.01 U LeuDH enzyme (#E0217, Nanjing Duly Biotechnology Co., Ltd., Nanjing, China) and 15 ng BCAT1 enzyme (#ME17NO0265, Sino Biological, Beijing, China). Subsequently, 40 μM α-KG, 100 μM Leucine and 10 μM NADH substrate mixture were added to initiate the reaction. Fluorescence changes in NADH were dynamically monitored using the Spark cyto (Tecan, Männedorf, Switzerland). The rate of NADH fluorescence decay was calculated to assess enzyme activity.

BCAT1 = system: BCAT1; parameters: method as in PMID 39791161; settings: Figure 1; cited from earlier work
hBCAT1 = system: hBCAT1; parameters: method as in PMID 39791161; settings: Figure 1; cited from earlier work

Row | Compound | IC50 (NCI-H1975 cells) [mM] | IC50 (67R cells; Homo sapiens) [mM] | IC50 (BCAT1 enzyme) [mM] | also measured
1 | NC[C@@]1(CC(=O)O)C[C@H]2C=C[C@@H]1C2 (relative stereo) [2•p-TsOH, 2-((1S*,2R*,4S*)-2-(Aminomethyl)bicyclo[2.2.1]hept-5-en-2-yl)acetic acid] | 8.99 ± 0.67 | < 2 | 2.04 ± 0.98 | IC50 (67R cells): 2.71 ± 0.33 mM
2 | NC[C@]1(CC(=O)O)C[C@H]2C=C[C@@H]1C2 (relative stereo) [3•p-TsOH, 2-((1S*,2S*,4S*)-2-(Aminomethyl)bicyclo[2.2.1]hept-5-en-2-yl)acetic acid] | – | – | 3.96 ± 2.83 | –
3 | NC[C@]1(CC(=O)O)C[C@H]2CCC[C@@H]1C2 (relative stereo) [5•HBr, 2-((1S*,5R*,6S*)-6-(Aminomethyl)bicyclo[3.2.1]octan-6-yl)acetic acid] | – | – | 4.2 ± 1.84 | –
4 | NC[C@@]1(CC(=O)O)C[C@H]2CC=C[C@@H]1C2 (relative stereo) [7•p-TsOH, 2-((1S*,5S*,6R*)-6-(Aminomethyl)bicyclo[3.2.1]oct-3-en-6-yl)acetic acid] | 7.26 ± 0.73 | < 2 | 0.78 ± 0.19 | IC50 (67R cells): 1.64 ± 0.49 mM; enhancement in BCAT1 enzymatic inhibitory activity compared to the parent compound WQQ-345 (BCAT1 enzyme; ratio of IC50 values versus WQQ-345): 6 fold
5 | NC[C@]1(CC(=O)O)C[C@H]2CCCC1CC2 (relative stereo) [8•HBr, 2-((1S*,6S*)-6-(Aminomethyl)bicyclo[3.2.2]nonan-6-yl)acetic acid] | – | – | 14.5 ± 6.39 | –
6 | NC[C@@]1(CC(=O)O)C[C@H]2CC[C@@H]1C2 (relative stereo) [Compound 1, 2-((1R*,2R*,4S*)-2-(Aminomethyl)bicyclo[2.2.1]heptan-2-yl)acetic acid] | 7.82 ± 0.48 | 2.6 ± 0.93 | 2.04 ± 0.59 | –
7 | NC[C@@]1(CC(=O)O)C[C@H]2CCC[C@@H]1C2 (relative stereo) [Compound 6, 2-((1S*,5R*,6R*)-6-(Aminomethyl)bicyclo[3.2.1]octan-6-yl)acetic acid] | – | – | 1.54 ± 0.47 | –
8 | NCC1(CC(=O)O)CC2CCC1CC2 (stereo not drawn) [4•HBr, 2-((1R*,2S*,4R*)-2-(aminomethyl)bicyclo[2.2.2]octan-2-yl)acetic acid] | 8.08 ± 0.96 | 1.38 ± 0.37 | 1.71 ± 1 | –
9 | Cc1ccccc1Oc1cc(-n2c(=O)cc(C(F)(F)F)[nH]c2=O)c2ccccc2c1Cl [BAY-069] | – | – | – | IC50 (BCAT1): 31 nM
10 | CC(=O)C(C)CCC(=O)O (centres unmarked) [MOHA] | – | – | – | IC50 (hBCAT1): 0.001 to 0.01 mM
11 | NC[C@]1(CC(=O)O)C[C@H]2CC[C@@H]1C2 [WQQ-345•HBr] | – | – | 4.86 ± 1.98 | –
12 | NCC1(CC(=O)O)CCCCC1 [gabapentin, reference compound] | > 10 | 3.53 ± 0.22 | 5.07 ± 1.06 | Ki (hBCAT1): 3.5 mM
